{"source": "paper PMC5218480", "about": "(PLoS ONE, 2017)", "system": "MV-4-11 cells", "assay": "Gene expression microarray analysis (Affymetrix PrimeView) and GSEA", "assay_type": "cell-based, human", "set-up": "RFU PODN (11730768_x_at) / Fold change /veh PODN (11730768_x_at) / RFU LINC00158 (11744669_a_at) / Fold change /veh LINC00158 (11744669_a_at) / RFU DUSP10 (11751237_a_at) / Fold change /veh DUSP10 (11751237_a_at) / RFU ID3 (11757404_x_at) / Fold change /veh ID3 (11757404_x_at) / RFU PLEKHG5 (11737974_s_at) / Fold change /veh PLEKHG5 (11737974_s_at) / RFU LRRC4B (11730491_at) / Fold change /veh LRRC4B (11730491_at) / RFU GIMAP4 (11747438_a_at) / Fold change /veh GIMAP4 (11747438_a_at) / RFU KRT8 (11758183_x_at) / Fold change /veh KRT8 (11758183_x_at) / RFU CNN1 (11734310_a_at) / Fold change /veh CNN1 (11734310_a_at) / RFU VPS37D (11726825_at) / Fold change /veh VPS37D (11726825_at) / RFU C10orf10 (11716522_x_at) / Fold change /veh C10orf10 (11716522_x_at) / RFU KIR2DL2 /// KIR2DL4 /// KIR2DL5A /// KIR2DL5B /// KIR2DS1 /// KIR2DS2 /// KIR2DS3 /// KIR2DS4 /// KIR3DL3 /// KIR3DL3 /// KIR3DS1 (11738374_at) / Fold change /veh KIR2DL2 /// KIR2DL4 /// KIR2DL5A /// KIR2DL5B /// KIR2DS1 /// KIR2DS2 /// KIR2DS3 /// KIR2DS4 /// KIR3DL3 /// KIR3DL3 /// KIR3DS1 (11738374_at) / RFU C1QL1 (11718748_at) / Fold change /veh C1QL1 (11718748_at) / RFU TMPRSS4 (11747572_a_at) / Fold change /veh TMPRSS4 (11747572_a_at) / RFU HAMP (11756126_x_at) / Fold change /veh HAMP (11756126_x_at) / RFU RNFT2 (11725882_a_at) / Fold change /veh RNFT2 (11725882_a_at) / RFU NR4A2 (11747474_a_at) / Fold change /veh NR4A2 (11747474_a_at) / RFU ABCC12 (11746883_a_at) / Fold change /veh ABCC12 (11746883_a_at) / RFU TMEM136 (11760407_x_at) / Fold change /veh TMEM136 (11760407_x_at) / RFU CLDN22 /// WWC2 (11732394_at) / Fold change /veh CLDN22 /// WWC2 (11732394_at) / RFU HLA-DPB1 (11760878_x_at) / Fold change /veh HLA-DPB1 (11760878_x_at) / RFU SPINT1 (11716480_a_at) / Fold change /veh SPINT1 (11716480_a_at) / RFU GAP43 (11754022_s_at) / Fold change /veh GAP43 (11754022_s_at) / RFU A4GNT (11735810_at) / Fold change /veh A4GNT (11735810_at) / RFU PRB3 (11715151_x_at) / Fold change /veh PRB3 (11715151_x_at) / RFU TUBB4B (11761932_at) / Fold change /veh TUBB4B (11761932_at) / RFU CAPN14 (11732068_a_at) / Fold change /veh CAPN14 (11732068_a_at) / RFU TMCC2 (11721928_a_at) / Fold change /veh TMCC2 (11721928_a_at) / RFU IRGQ (11745062_a_at) / Fold change /veh IRGQ (11745062_a_at) / RFU FAM174B (11720279_a_at) / Fold change /veh FAM174B (11720279_a_at) / RFU TMPRSS4 (11748680_a_at) / Fold change /veh TMPRSS4 (11748680_a_at) / RFU FAM212B (11763350_a_at) / Fold change /veh FAM212B (11763350_a_at) / RFU PLEKHG5 (11743358_a_at) / Fold change /veh PLEKHG5 (11743358_a_at) / RFU ZSCAN30 (11745921_a_at) / Fold change /veh ZSCAN30 (11745921_a_at) / RFU CMKLR1 (11741424_a_at) / Fold change /veh CMKLR1 (11741424_a_at) / RFU LOC101060620 /// MAPK8IP1 (11723275_at) / Fold change /veh LOC101060620 /// MAPK8IP1 (11723275_at) / RFU SPTSSB (11747773_x_at) / Fold change /veh SPTSSB (11747773_x_at) / RFU PRSS12 (11739890_at) / Fold change /veh PRSS12 (11739890_at) / RFU BIN1 (11741810_x_at) / Fold change /veh BIN1 (11741810_x_at) / RFU WNT11 (11732464_a_at) / Fold change /veh WNT11 (11732464_a_at) / RFU C10orf10 (11716521_a_at) / Fold change /veh C10orf10 (11716521_a_at) / RFU C5orf56 (11738089_at) / Fold change /veh C5orf56 (11738089_at) / RFU CYB561 (11721691_x_at) / Fold change /veh CYB561 (11721691_x_at) / RFU ANKRD19P (11752326_a_at) / Fold change /veh ANKRD19P (11752326_a_at) / RFU OR2T12 /// OR2T33 /// OR2T8 (11738714_s_at) / Fold change /veh OR2T12 /// OR2T33 /// OR2T8 (11738714_s_at) / RFU VCAN (11748164_a_at) / Fold change /veh VCAN (11748164_a_at) / RFU JSRP1 (11732532_at) / Fold change /veh JSRP1 (11732532_at) / RFU KRTAP10-11 (11738290_x_at) / Fold change /veh KRTAP10-11 (11738290_x_at) / RFU MYO3A (11730013_a_at) / Fold change /veh MYO3A (11730013_a_at) / RFU EBF3 (11725865_a_at) / Fold change /veh EBF3 (11725865_a_at) / RFU CAMK2N1 (11719241_x_at) / Fold change /veh CAMK2N1 (11719241_x_at) / RFU C5orf56 (11738088_a_at) / Fold change /veh C5orf56 (11738088_a_at) / RFU OLFML3 (11715873_a_at) / Fold change /veh OLFML3 (11715873_a_at) / RFU LOC100653217 /// NTM (11731650_a_at) / Fold change /veh LOC100653217 /// NTM (11731650_a_at) / RFU MAPK11 (11762145_a_at) / Fold change /veh MAPK11 (11762145_a_at) / RFU FIZ1 (11724087_x_at) / Fold change /veh FIZ1 (11724087_x_at) / RFU OASL (11726364_x_at) / Fold change /veh OASL (11726364_x_at) / RFU SOX15 (11748057_x_at) / Fold change /veh SOX15 (11748057_x_at) / RFU CD79A (11719716_a_at) / Fold change /veh CD79A (11719716_a_at) / RFU HIST1H1D (11736915_at) / Fold change /veh HIST1H1D (11736915_at) / RFU CASKIN2 (11723855_a_at) / Fold change /veh CASKIN2 (11723855_a_at) / RFU LOC730098 (11760151_x_at) / Fold change /veh LOC730098 (11760151_x_at) / RFU OR4N2 (11742367_at) / Fold change /veh OR4N2 (11742367_at) / RFU PRRT2 (11749266_a_at) / Fold change /veh PRRT2 (11749266_a_at) / RFU SNX32 (11753110_a_at) / Fold change /veh SNX32 (11753110_a_at) / RFU CDHR5 (11726645_a_at) / Fold change /veh CDHR5 (11726645_a_at) / RFU RCAN1 (11760418_a_at) / Fold change /veh RCAN1 (11760418_a_at) / RFU FAM167A (11723789_a_at) / Fold change /veh FAM167A (11723789_a_at) / RFU FAM26E (11764081_at) / Fold change /veh FAM26E (11764081_at) / RFU ISYNA1 (11749810_s_at) / Fold change /veh ISYNA1 (11749810_s_at) / RFU ACY1 (11761880_at) / Fold change /veh ACY1 (11761880_at) / RFU 11764098_at / Fold change /veh 11764098_at / RFU SAMD14 (11745864_x_at) / Fold change /veh SAMD14 (11745864_x_at) / RFU NPB (11741838_a_at) / Fold change /veh NPB (11741838_a_at) / RFU TMPRSS6 (11731388_a_at) / Fold change /veh TMPRSS6 (11731388_a_at) / RFU KRTAP10-2 (11738614_at) / Fold change /veh KRTAP10-2 (11738614_at) / RFU ARHGAP8 /// PRR5-ARHGAP8 (11727945_x_at) / Fold change /veh ARHGAP8 /// PRR5-ARHGAP8 (11727945_x_at) / RFU KRTAP5-7 /// NADSYN1 (11734609_at) / Fold change /veh KRTAP5-7 /// NADSYN1 (11734609_at) / RFU RASL12 (11751679_a_at) / Fold change /veh RASL12 (11751679_a_at) / RFU CDKN2B (11736163_a_at) / Fold change /veh CDKN2B (11736163_a_at) / RFU PRF1 (11729649_at) / Fold change /veh PRF1 (11729649_at) / RFU, ZNF638 /// ZNF638-IT1 / Fold change vs veh, ZNF638 /// ZNF638-IT1 / RFU, PANK3 / Fold change vs veh, PANK3 / RFU, SH3YL1 / Fold change vs veh, SH3YL1 / RFU, ZEB2 / Fold change vs veh, ZEB2 / RFU, NRIP1 / Fold change vs veh, NRIP1 / RFU, PTTG1IP / Fold change vs veh, PTTG1IP / RFU, CAPN2 / Fold change vs veh, CAPN2 / RFU, MED14 / Fold change vs veh, MED14 / RFU, SNORA58 / Fold change vs veh, SNORA58 / RFU, C1orf63 / Fold change vs veh, C1orf63 / RFU, LRRFIP1 / Fold change vs veh, LRRFIP1 / RFU, NDUFAF7 / Fold change vs veh, NDUFAF7 / RFU, SLC12A2 / Fold change vs veh, SLC12A2 / RFU, IBTK / Fold change vs veh, IBTK / RFU, ESF1 / Fold change vs veh, ESF1 / Fold change vs veh, TMEM50B / RFU, TAOK1 / Fold change vs veh, TAOK1 / RFU, ACBD3 / Fold change vs veh, ACBD3 / RFU, TMA16 / Fold change vs veh, TMA16 / RFU, RWDD3 / Fold change vs veh, RWDD3 / RFU, BCAT1 / Fold change vs veh, BCAT1 / RFU, EDEM3 / Fold change vs veh, EDEM3 / RFU, TMEM33 / Fold change vs veh, TMEM33 / RFU, WDR75 / Fold change vs veh, WDR75 / RFU, AHCTF1 / Fold change vs veh, AHCTF1 / RFU, TFRC / Fold change vs veh, TFRC / RFU, ZDHHC17 / Fold change vs veh, ZDHHC17 / RFU, NOM1 / Fold change vs veh, NOM1 / RFU, ARL8B / Fold change vs veh, ARL8B / RFU, ZBTB11 / Fold change vs veh, ZBTB11 / RFU, TAMM41 / Fold change vs veh, TAMM41 / RFU, KIAA1704 /// LOC100996395 / Fold change vs veh, KIAA1704 /// LOC100996395 / RFU, ING1 / Fold change vs veh, ING1 / RFU, TRMT61B / Fold change vs veh, TRMT61B / RFU, FUBP3 / Fold change vs veh, FUBP3 / RFU, TP53 / Fold change vs veh, TP53 / RFU, TNKS2 / Fold change vs veh, TNKS2 / RFU, ZFP14 / Fold change vs veh, ZFP14 / RFU, ACTR2 / Fold change vs veh, ACTR2 / RFU, PPP3R1 / Fold change vs veh, PPP3R1 / RFU, PIK3R1 / Fold change vs veh, PIK3R1 / RFU, HNRNPA1 / Fold change vs veh, HNRNPA1 / RFU, RNF170 / Fold change vs veh, RNF170 / RFU, ZNF28 / Fold change vs veh, ZNF28 / RFU, RNGTT / Fold change vs veh, RNGTT / RFU, OGT / Fold change vs veh, OGT / RFU, BRD1 / Fold change vs veh, BRD1 / RFU, MARS / Fold change vs veh, MARS / RFU, ZNF655 / Fold change vs veh, ZNF655 / RFU, FAHD1 / Fold change vs veh, FAHD1 / RFU, BDP1 / Fold change vs veh, BDP1 / RFU, LRRCC1 / Fold change vs veh, LRRCC1 / RFU, ARID1A / Fold change vs veh, ARID1A / RFU, ZNF146 / Fold change vs veh, ZNF146 / RFU, ZNF330 / Fold change vs veh, ZNF330 / RFU, GPN3 / Fold change vs veh, GPN3 / RFU, C9orf123 / Fold change vs veh, C9orf123 / RFU, N4BP2L2 / Fold change vs veh, N4BP2L2 / RFU, ARFIP1 / Fold change vs veh, ARFIP1 / RFU, FAM179B / Fold change vs veh, FAM179B / RFU, BCL10 / Fold change vs veh, BCL10 / RFU, UHRF1BP1L / Fold change vs veh, UHRF1BP1L / RFU, BET1 / Fold change vs veh, BET1 / RFU, CNOT2 / Fold change vs veh, CNOT2 / RFU, ZNF268 / Fold change vs veh, ZNF268 / Fold change vs veh, ZNF507 / RFU, DGCR2 / Fold change vs veh, DGCR2 / RFU, WDSUB1 / Fold change vs veh, WDSUB1 / Fold change vs veh, HSP90B1 /// MIR3652 / RFU, ADSS / Fold change vs veh, ADSS / RFU, GK / Fold change vs veh, GK / RFU, ZNF148 / Fold change vs veh, ZNF148 / RFU, TAF9 / Fold change vs veh, TAF9 / RFU, SLC1A5 / Fold change vs veh, SLC1A5 / RFU, SLMO2 / Fold change vs veh, SLMO2 / RFU, ABCC4 / Fold change vs veh, ABCC4 / RFU, LOC101060439 /// RAP1B / Fold change vs veh, LOC101060439 /// RAP1B / RFU, RFX7 / Fold change vs veh, RFX7 / RFU, GTPBP10 / Fold change vs veh, GTPBP10 / RFU, CNEP1R1 / Fold change vs veh, CNEP1R1 / RFU, BIVM-ERCC5 /// ERCC5 / Fold change vs veh, BIVM-ERCC5 /// ERCC5 / RFU, ILF3 / Fold change vs veh, ILF3 / RFU 11762660_at / Fold change /veh 11762660_at / RFU VCAN (11757783_s_at) / Fold change /veh VCAN (11757783_s_at) / RFU DDX43 (11728927_at) / Fold change /veh DDX43 (11728927_at) / RFU KRT8 (11758188_x_at) / Fold change /veh KRT8 (11758188_x_at) / RFU NKD1 (11759106_at) / Fold change /veh NKD1 (11759106_at) / RFU SRD5A1 (11742802_a_at) / Fold change /veh SRD5A1 (11742802_a_at) / RFU TPSAB1 /// TPSB2 (11721975_s_at) / Fold change /veh TPSAB1 /// TPSB2 (11721975_s_at) / RFU GSTM3 (11746129_a_at) / Fold change /veh GSTM3 (11746129_a_at) / RFU IL23R (11737362_x_at) / Fold change /veh IL23R (11737362_x_at) / RFU TMEM51 (11727254_a_at) / Fold change /veh TMEM51 (11727254_a_at) / RFU PIWIL2 (11732686_x_at) / Fold change /veh PIWIL2 (11732686_x_at) / RFU ORM1 (11744905_x_at) / Fold change /veh ORM1 (11744905_x_at) / RFU CCDC152 (11743942_at) / Fold change /veh CCDC152 (11743942_at) / RFU ECM1 (11717891_a_at) / Fold change /veh ECM1 (11717891_a_at) / RFU IL23R (11748794_a_at) / Fold change /veh IL23R (11748794_a_at) / RFU TNFAIP8L3 (11732012_x_at) / Fold change /veh TNFAIP8L3 (11732012_x_at) / RFU MBOAT4 (11741988_at) / Fold change /veh MBOAT4 (11741988_at) / RFU 11764193_at / Fold change /veh 11764193_at / RFU TMEM53 (11763286_at) / Fold change /veh TMEM53 (11763286_at) / RFU MAGEB2 (11727129_at) / Fold change /veh MAGEB2 (11727129_at) / RFU TMEM200A (11744735_a_at) / Fold change /veh TMEM200A (11744735_a_at) / RFU CCDC152 (11751479_a_at) / Fold change /veh CCDC152 (11751479_a_at) / RFU FAM211A (11726209_a_at) / Fold change /veh FAM211A (11726209_a_at) / RFU RGS16 (11746705_a_at) / Fold change /veh RGS16 (11746705_a_at) / RFU VCAN (11755009_s_at) / Fold change /veh VCAN (11755009_s_at) / RFU RHOB (11743442_s_at) / Fold change /veh RHOB (11743442_s_at) / RFU RGS16 (11720943_a_at) / Fold change /veh RGS16 (11720943_a_at) / RFU RGS16 (11720944_at) / Fold change /veh RGS16 (11720944_at) / RFU, VPS4B / Fold change vs veh, VPS4B / RFU, CREB1 / Fold change vs veh, CREB1 / RFU, DNAJC13 / Fold change vs veh, DNAJC13 / RFU, GNAQ / Fold change vs veh, GNAQ / RFU, CDK5R1 / Fold change vs veh, CDK5R1 / RFU, ZRANB3 / Fold change vs veh, ZRANB3 / RFU, CUL4A / Fold change vs veh, CUL4A / RFU, CCNY / Fold change vs veh, CCNY / RFU, UFL1 / Fold change vs veh, UFL1 / RFU, COG3 / Fold change vs veh, COG3 / RFU, DIAPH2 / Fold change vs veh, DIAPH2 / RFU, SKA2 / Fold change vs veh, SKA2 / RFU, AFF3 / Fold change vs veh, AFF3 / RFU, LMF1 / Fold change vs veh, LMF1 / RFU, IPO11 / Fold change vs veh, IPO11 / RFU, DFFB / Fold change vs veh, DFFB / RFU, FOXP1 / Fold change vs veh, FOXP1 / RFU, CARD8 / Fold change vs veh, CARD8 / RFU, STRN3 / Fold change vs veh, STRN3 / RFU, ADK / Fold change vs veh, ADK / RFU, RASSF2 / Fold change vs veh, RASSF2 / RFU, WIPF1 / Fold change vs veh, WIPF1 / RFU, LARP1B / Fold change vs veh, LARP1B / RFU, RASA1 / Fold change vs veh, RASA1 / RFU, RB1 / Fold change vs veh, RB1 / RFU, PPFIA1 / Fold change vs veh, PPFIA1 / RFU, MAT2A / Fold change vs veh, MAT2A / RFU, CCT5 / Fold change vs veh, CCT5 / RFU, WDR92 / Fold change vs veh, WDR92 / RFU, CUX1 / Fold change vs veh, CUX1 / RFU, TTC7A / Fold change vs veh, TTC7A / RFU, TMEM135 / Fold change vs veh, TMEM135 / RFU, DEPTOR / Fold change vs veh, DEPTOR / RFU, CPM / Fold change vs veh, CPM / RFU, DNAJB6 / Fold change vs veh, DNAJB6 / RFU, CACNA2D3 / Fold change vs veh, CACNA2D3 / RFU, DTX4 / Fold change vs veh, DTX4 / RFU, TFCP2 / Fold change vs veh, TFCP2 / RFU, GMCL1 /// GMCL1P1 / Fold change vs veh, GMCL1 /// GMCL1P1 / RFU, AEBP2 / Fold change vs veh, AEBP2 / RFU, SNHG1 /// SNORD22 /// SNORD25 /// SNORD26 /// SNORD27 /// SNORD28 /// SNORD29 /// SNORD31 / Fold change vs veh, SNHG1 /// SNORD22 /// SNORD25 /// SNORD26 /// SNORD27 /// SNORD28 /// SNORD29 /// SNORD31 / Fold change (Aza/veh), C12orf56 (ProbeSet 11735607_a_at) / Fold change (ACY-1035/veh), C12orf56 (ProbeSet 11735607_a_at) / Fold change (Aza/veh), FGFR1OP (ProbeSet 11751329_s_at) / Fold change (ACY-1035/veh), FGFR1OP (ProbeSet 11751329_s_at) / Fold change (Aza/veh), VPS36 (ProbeSet 11739960_a_at) / Fold change (ACY-1035/veh), VPS36 (ProbeSet 11739960_a_at) / RFU SYPL1 (11715823_x_at) / Fold change /veh SYPL1 (11715823_x_at) / RFU IGFBP7 (11715501_s_at) / Fold change /veh IGFBP7 (11715501_s_at) / RFU REEP3 (11722064_at) / Fold change /veh REEP3 (11722064_at) / RFU IGLL1 (11728026_x_at) / Fold change /veh IGLL1 (11728026_x_at): dose or concentration left out as unconfirmed", "conditions": "MV-4-11 cells, 48 hours", "data": [{"compound": "Nc1ccc(-c2cccs2)cc1NC(=O)c1ccc2c(c1)cc(C1CC1)n2CCN1CCOCC1", "note": "[ACY-1035]", "values": [{"measurement": "RFU LOC100653217 /// NTM (11731650_a_at)", "value": 9.86, "unit": "RFU"}]}]}
